The record followed here is patent US20250195530A1, “POLQ INHIBITORS” (ASTRAZENECA AB, priority 2022, published 2025).

Each structure is given as a SMILES string.

In the first assay the test system is DLD-1 BRCA2−/− cells. In words: Homologous recombination synthetic lethal inhibition of proliferation, DLD-1 BRCA2-/- (Cell Titre Glo 3D). It is filed as cell-based. The conditions noted are these: Homo sapiens, DLD-1, first proliferation column (c5); DLD-1 BRCA2-/-; read-out: POLQ PD Prolif Lumin (converted). The gist of the method: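 Isogenic DLD-1 pair; BRCA2−/− seeded 3,000 cells/mL and read day 12, wt seeded 1,500 cells/mL and read day 7. 10-pt titration (top 10 μM, 3-fold), re-fed with compound day 6, 37 °C/5% CO2. CTG 3D endpoint; IC50 at 50% signal loss.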
Take `Cc1ccnc(Cn2c(-c3ccc(O[C@H]4CCN(C(=O)CO)C4)cc3Cl)nc3c(OC4(C)CC4)ncnc32)c1` [Example T483, (S)-1-(3-(3-chloro-4-(6-(1-methylcyclopropoxy)-9-((4-methylpyridin-2-yl)methyl)-9H-purin-8-yl)phenoxy)pyrrolidin-1-yl)-2-hydroxyethan-1-one]: the IC50 was 631 nM.
Still for that read-out and setting: then `CC1(Oc2ncnc3c2nc(-c2ccc(OCCN4C[C@H]5C[C@@H]4CN5)cc2Cl)n3Cc2cc(Cl)ccn2)CC1` [Example T485, 8-(4-(2-((1R,4R)-2,5-diazabicyclo[2.2.1]heptan-2-yl)ethoxy)-2-chlorophenyl)-9-((4-chloropyridin-2-yl)methyl)-6-(1-methylcyclopropoxy)-9H-purine], with 501 nM; and `CC1(Oc2ncnc3c2nc(-c2ccc(OCCN4CC5(CCN5)C4)cc2Cl)n3Cc2cc(Cl)ccn2)CC1` [Example T486, 8-(4-(2-(1,6-diazaspiro[3.3]heptan-6-yl)ethoxy)-2-chlorophenyl)-9-((4-chloropyridin-2-yl)methyl)-6-(1-methylcyclopropoxy)-9H-purine], with 501 nM; and `CC1(Oc2ncnc3c2nc(-c2ccc(OCCN4C[C@@H]5C[C@H]4CN5)cc2Cl)n3Cc2cc(Cl)ccn2)CC1` [Example T487, 8-(4-(2-((1S,4S)-2,5-diazabicyclo[2.2.1]heptan-2-yl)ethoxy)-2-chlorophenyl)-9-((4-chloropyridin-2-yl)methyl)-6-(1-methylcyclopropoxy)-9H-purine], with 398 nM.
The same measure, in the same setting: the same measure for `Cc1ccnc(Cn2c(-c3ccc(N4CCC5(CNC5)C4)cc3Cl)nc3c(OC4(C)CC4)ncnc32)c1` [Example T490, 8-(2-chloro-4-(2,6-diazaspiro[3.4]octan-6-yl)phenyl)-6-(1-methylcyclopropoxy)-9-((4-methylpyridin-2-yl)methyl)-9H-purine]: 2000 nM; for `Cc1ccnc(Cn2c(-c3ccc(N4CCC5NCCC54)cc3Cl)nc3c(OC4(C)CC4)ncnc32)c1` (stereo not drawn) [Example T492, 8-(2-chloro-4-(hexahydropyrrolo[3,2-b]pyrrol-1(2H)-yl)phenyl)-6-(1-methylcyclopropoxy)-9-((4-methylpyridin-2-yl)methyl)-9H-purine]: 398 nM.
The same measure, in the same setting: the same measure for `Cc1ccnc(Cn2c(-c3ccc(N4C[C@H]5CCN[C@H]5C4)cc3Cl)nc3c(OC4(C)CC4)ncnc32)c1` [Example T494, 8-(2-chloro-4-((3aR,6aR)-hexahydropyrrolo[3,4-b]pyrrol-5(1H)-yl)phenyl)-6-(1-methylcyclopropoxy)-9-((4-methylpyridin-2-yl)methyl)-9H-purine]: 316 nM; for `CNC(=O)[C@H]1CCN(c2ccc(-c3nc4c(OC5(C)CC5)ncnc4n3Cc3cc(C)ccn3)c(Cl)c2)C1` [Example T497, (S)-1-(3-chloro-4-(6-(1-methylcyclopropoxy)-9-((4-methylpyridin-2-yl)methyl)-9H-purin-8-yl)phenyl)-N-methylpyrrolidine-3-carboxamide]: 501 nM; for `Cc1ccnc(Cn2c(-c3ccc(OCCN4CCNCC4=O)cc3Cl)nc3c(OC4(C)CC4)ncnc32)c1` [Example T498, 1-(2-(3-chloro-4-(6-(1-methylcyclopropoxy)-9-((4-methylpyridin-2-yl)methyl)-9H-purin-8-yl)phenoxy)ethyl)piperazin-2-one]: 316 nM.
Consider `Cc1ccnc(Cn2c(-c3ccc(OCCN4CCNC(=O)C4)cc3Cl)nc3c(OC4(C)CC4)ncnc32)c1` [Example T499, 4-(2-(3-chloro-4-(6-(1-methylcyclopropoxy)-9-((4-methylpyridin-2-yl)methyl)-9H-purin-8-yl)phenoxy)ethyl)piperazin-2-one], for which the IC50 is 316 nM.
Still for that read-out and setting: then `CNC(=O)N1CC[C@@H](Oc2ccc(-c3nc4c(OC5(C)CC5)ncnc4n3Cc3cc(C)ccn3)c(Cl)c2)C1` [Example T501, (R)-3-(3-chloro-4-(6-(1-methylcyclopropoxy)-9-((4-methylpyridin-2-yl)methyl)-9H-purin-8-yl)phenoxy)-N-methylpyrrolidine-1-carboxamide], with 794 nM; and `Cc1ccnc(Cn2c(-c3ccc(CC(=O)NCC(C)(C)O)cc3Cl)nc3c(OC4(C)CC4)ncnc32)c1` [Example T515, 2-(3-chloro-4-(6-(1-methylcyclopropoxy)-9-((4-methylpyridin-2-yl)methyl)-9H-purin-8-yl)phenyl)-N-(2-hydroxy-2-methylpropyl)acetamide], with 631 nM.
On the same count and under the same terms, the same measure for `Cc1ccnc(Cn2c(-c3ccc(OCC(=O)N[C@H](C)CCO)cc3Cl)nc3c(OC4(C)CC4)ncnc32)c1` [Example T516, (R)-2-(3-chloro-4-(6-(1-methylcyclopropoxy)-9-((4-methylpyridin-2-yl)methyl)-9H-purin-8-yl)phenoxy)-N-(4-hydroxybutan-2-yl)acetamide]: 200 nM; for `Cc1ccnc(Cn2c(-c3ccc(OCC(=O)NCC(C)(C)O)cc3Cl)nc3c(OC4(C)CC4)ncnc32)c1` [Example T517, 2-(3-chloro-4-(6-(1-methylcyclopropoxy)-9-((4-methylpyridin-2-yl)methyl)-9H-purin-8-yl)phenoxy)-N-(2-hydroxy-2-methylpropyl)acetamide]: 398 nM.
As for `CC[C@H](CO)NC(=O)COc1ccc(-c2nc3c(OC4(C)CC4)ncnc3n2Cc2cc(C)ccn2)c(Cl)c1` [Example T518, (R)-2-(3-chloro-4-(6-(1-methylcyclopropoxy)-9-((4-methylpyridin-2-yl)methyl)-9H-purin-8-yl)phenoxy)-N-(1-hydroxybutan-2-yl)acetamide], the IC50 is 398 nM.
`Cc1ccnc(Cn2c(-c3ccc(OCC(=O)NC(C)(C)CO)cc3Cl)nc3c(OC4(C)CC4)ncnc32)c1` [Example T519, 2-(3-chloro-4-(6-(1-methylcyclopropoxy)-9-((4-methylpyridin-2-yl)methyl)-9H-purin-8-yl)phenoxy)-N-(1-hydroxy-2-methylpropan-2-yl)acetamide]: the IC50 is 316 nM.
The same measure, in the same setting: then `CC[C@@H](O)CNC(=O)COc1ccc(-c2nc3c(OC4(C)CC4)ncnc3n2Cc2cc(C)ccn2)c(Cl)c1` [Example T520, (R)-2-(3-chloro-4-(6-(1-methylcyclopropoxy)-9-((4-methylpyridin-2-yl)methyl)-9H-purin-8-yl)phenoxy)-N-(2-hydroxybutyl)acetamide], with 398 nM; and `C[C@@H]1CNCCN1CCOc1ccc(-c2nc3c(OC4(C)CC4)ncnc3n2Cc2cc(Cl)ccn2)c(Cl)c1` [Example T522, (R)-8-(2-chloro-4-(2-(2-methylpiperazin-1-yl)ethoxy)phenyl)-9-((4-chloropyridin-2-yl)methyl)-6-(1-methylcyclopropoxy)-9H-purine], with 251 nM; and `Cc1ccnc(Cn2c(-c3ccc(OCC(=O)N4CC[C@@H](C#N)C4)cc3Cl)nc3c(OC4(C)CC4)ncnc32)c1` [Example T538, (R)-1-(2-(3-chloro-4-(6-(1-methylcyclopropoxy)-9-((4-methylpyridin-2-yl)methyl)-9H-purin-8-yl)phenoxy)acetyl)pyrrolidine-3-carbonitrile], with 501 nM.
Still for that read-out and setting: then `Cc1ccnc(Cn2c(-c3ccc(OCC(=O)N4CCC[C@H]4C#N)cc3Cl)nc3c(OC4(C)CC4)ncnc32)c1` [Example T539, (S)-1-(2-(3-chloro-4-(6-(1-methylcyclopropoxy)-9-((4-methylpyridin-2-yl)methyl)-9H-purin-8-yl)phenoxy)acetyl)pyrrolidine-2-carbonitrile], with 316 nM.

The assay is the same for the next values; noted with them: Homo sapiens, DLD-1, proliferation, luminescence, taken as DLD-1 BRCA2-/-; read-out: POLQ PD Prolif Lumin (converted).
`Cc1ccnc(Cn2c(-c3ccc(OCC(=O)N4CCOCC4)cc3Cl)nc3c(OC4(C)CC4)ncnc32)c1` [Example T475, 2-(3-chloro-4-(6-(1-methylcyclopropoxy)-9-((4-methylpyridin-2-yl)methyl)-9H-purin-8-yl)phenoxy)-1-morpholinoethan-1-one]: the IC50 is 251 nM.
Still for that read-out and setting: the same measure for `Cc1ccnc(Cn2c(-c3ccc(OCC(=O)NC4(C)COC4)cc3Cl)nc3c(OC4(C)CC4)ncnc32)c1` [Example T476, 2-(3-chloro-4-(6-(1-methylcyclopropoxy)-9-((4-methylpyridin-2-yl)methyl)-9H-purin-8-yl)phenoxy)-N-(3-methyloxetan-3-yl)acetamide]: 251 nM.
Turning to `Cc1ccnc(Cn2c(-c3ccc(OCC(=O)N4CC(C)(O)C4)cc3Cl)nc3c(OC4(C)CC4)ncnc32)c1` [Example T477, 2-(3-chloro-4-(6-(1-methylcyclopropoxy)-9-((4-methylpyridin-2-yl)methyl)-9H-purin-8-yl)phenoxy)-1-(3-hydroxy-3-methylazetidin-1-yl)ethan-1-one], the IC50 was 1260 nM.
As to `Cc1ccnc(Cn2c(-c3ccc(OCC(=O)N[C@@H]4CCOC4)cc3Cl)nc3c(OC4(C)CC4)ncnc32)c1` [Example T478, (R)-2-(3-chloro-4-(6-(1-methylcyclopropoxy)-9-((4-methylpyridin-2-yl)methyl)-9H-purin-8-yl)phenoxy)-N-(tetrahydrofuran-3-yl)acetamide], the IC50 was 501 nM.
In the case of `Cc1ccnc(Cn2c(-c3ccc(OCC(=O)NC4CC(O)C4)cc3Cl)nc3c(OC4(C)CC4)ncnc32)c1` (stereo not drawn) [Example T479, 2-(3-chloro-4-(6-(1-methylcyclopropoxy)-9-((4-methylpyridin-2-yl)methyl)-9H-purin-8-yl)phenoxy)-N-(3-hydroxycyclobutyl)acetamide], the IC50 was 398 nM.
The same measure, in the same setting: then `Cc1ccnc(Cn2c(-c3ccc(OCC(=O)N(C)C4COC4)cc3Cl)nc3c(OC4(C)CC4)ncnc32)c1` [Example T480, 2-(3-chloro-4-(6-(1-methylcyclopropoxy)-9-((4-methylpyridin-2-yl)methyl)-9H-purin-8-yl)phenoxy)-N-methyl-N-(oxetan-3-yl)acetamide], with 501 nM.
In the case of `Cc1ccnc(Cn2c(-c3ccc(OCCN4CCOCC4=O)cc3Cl)nc3c(OC4(C)CC4)ncnc32)c1` [Example T481, 4-(2-(3-chloro-4-(6-(1-methylcyclopropoxy)-9-((4-methylpyridin-2-yl)methyl)-9H-purin-8-yl)phenoxy)ethyl)morpholin-3-one], the IC50 was 316 nM.
